{
  "source": "patent US20080070991A1",
  "about": "(priority 2006, published 2008)",
  "origin": "cited, not measured here",
  "test_system": "stilbene synthase",
  "conditions": "Barbera cell suspensions treated with 10 μm methyljasmonate",
  "data": [
    {"smiles": "CC/C=C\\CC1C(=O)CCC1CC(=O)OC", "note": "(stereo not shown) [methyljasmonate, Methyljasmonate]", "values": [
      {"measurement": "stilbene synthase expression (gel analysis)", "value": "up-regulation of the stilbene synthase"}
    ]}
  ]
}
